The source made the active and inactive calls. No cut-off for these calls is given here.
Legend:
[1] = target: Histone deacetylase 4 (Homo sapiens) (UniProt P56524); assay: Induction of HDAC4 nuclear shuttling in human HaCaT cells at 10 uM after 1 hr by immunofluorescence method relative to DMSO-treated control; format: cell-based
[2] = target: T1, Histone deacetylase (Homo sapiens) (UniProt Q13547+O15379+Q9UBN7+Q92769+Q9UQL6+Q8WUI4+Q9BY41+Q96DB2+P56524+Q9UKV0+Q969S8); assay: Effect on HDAC in human HaCaT cells assessed as upregulation of miR-1296 at 10 uM after 1 hr by RT-PCR analysis; format: cell-based
[3] = target: T1, Histone deacetylase (Homo sapiens); assay: Effect on HDAC in human HaCaT cells assessed as downregulation of miR-505# at 10 uM after 1 hr by RT-PCR analysis; format: cell-based
C2C12 [4] = assay: Increase in mouse C2C12 cell proliferation at 0.1 uM after 72 hrs; format: functional, cell-based
[5] = target: T1, Histone deacetylase (Homo sapiens); assay: Effect on HDAC in human HaCaT cells assessed as upregulation of miR-30d# at 10 uM after 1 hr by RT-PCR analysis; format: cell-based
[6] = target: T1, Histone deacetylase (Homo sapiens); assay: Effect on HDAC in human HaCaT cells assessed as downregulation of miR-378 at 10 uM after 1 hr by RT-PCR analysis; format: cell-based
[7] = target: T1, Histone deacetylase (Homo sapiens); assay: Effect on HDAC in human HaCaT cells assessed as downregulation of miR-106b# at 10 uM after 1 hr by RT-PCR analysis; format: cell-based
HaCaT [8] = assay: Induction of NO release in human HaCaT cells at 10 uM after 1 to 5 hrs by DAF-2D-based FACS analysis relative to DMSO-treated control; format: functional, cell-based
[9] = target: T1, Histone deacetylase (Homo sapiens); assay: Inhibition of HDAC activity in human HaCaT cell lysate at 50 uM after 1 hr by colorimetry; format: cell-free
C2C12 [10] = assay: Modulation of mouse C2C12 cell proliferation at 0.1 uM after 72 hrs; format: functional, cell-based
[11] = target: Histone deacetylase 2 (Homo sapiens) (UniProt Q92769); assay: Induction of HDAC2 cysteine S-nitrosylation in human HaCaT cells at 10 uM after 1 hr by immunoprecipitation method; format: cell-based
HaCaT [12] = assay: Induction of NO release in human HaCaT cells assessed as Production of [3H]cGMP after 1 hr by liquid scintillation counting; format: functional, cell-based
C2C12 [13] = assay: Induction of myogenic differentiation in mouse C2C12 cells assessed as increase in number of nuclei per fiber at 0.1 uM after 7 days by immunofluorescence microscopy; format: functional, cell-based
[14] = target: T1, Histone deacetylase (Homo sapiens); assay: Effect on HDAC in human HaCaT cells assessed as downregulation of miR-27a# at 10 uM after 1 hr by RT-PCR analysis; format: cell-based
[15] = target: T1, Histone deacetylase (Homo sapiens); assay: Effect on HDAC in human HaCaT cells assessed as upregulation of miR-192# at 10 uM after 1 hr by RT-PCR analysis; format: cell-based
[16] = target: T1, Histone deacetylase (Homo sapiens); assay: Effect on HDAC in human HaCaT cells assessed as downregulation of miR-1254 at 10 uM after 1 hr by RT-PCR analysis; format: cell-based
[17] = target: T1, Histone deacetylase (Homo sapiens); assay: Effect on HDAC in human HaCaT cells assessed as downregulation of miR-200a# at 10 uM after 1 hr by RT-PCR analysis; format: cell-based
[18] = target: T1, Histone deacetylase (Homo sapiens); conditions: HaCaT, at 1 to 50 µM
Description: Inhibition of HDAC activity in human HaCaT cell lysate at 1 to 50 uM after 1 hr by colorimetry

[19] = target: T1, Histone deacetylase (Homo sapiens); assay: Effect on HDAC in human HaCaT cells assessed as upregulation of miR-1305 at 10 uM after 1 hr by RT-PCR analysis; format: cell-based
[20] = target: T1, Histone deacetylase (Homo sapiens); assay: Effect on HDAC in human HaCaT cells assessed as upregulation of miR-18a# at 10 uM after 1 hr by RT-PCR analysis; format: cell-based
[21] = target: Histone deacetylase 2 (Homo sapiens) (UniProt Q92769); assay: Induction of HDAC2 cysteine S-nitrosylation in human HaCaT cells at 10 uM after 1 hr by immunoprecipitation method in prsence of NO scavenger PTIO; format: cell-based
[22] = target: T1, Histone deacetylase (Homo sapiens); assay: Effect on HDAC in human HaCaT cells assessed as downregulation of miR-19b-1 at 10 uM after 1 hr by RT-PCR analysis; format: cell-based
[23] = target: T1, Histone deacetylase (Homo sapiens); assay: Effect on HDAC in human HaCaT cells assessed as downregulation of miR-99b# at 10 uM after 1 hr by RT-PCR analysis; format: cell-based
C2C12 [24] = assay: Induction of myogenic differentiation in mouse C2C12 cells assessed as MHC-positive fibers at 0.1 uM after 7 days by immunofluorescence microscopy; format: functional, cell-based
[25] = target: T1, Histone deacetylase (Homo sapiens); assay: Effect on HDAC in human HaCaT cells assessed as upregulation of miR-409-3p at 10 uM after 1 hr by RT-PCR analysis; format: cell-based
[26] = target: T1, Histone deacetylase (Homo sapiens); assay: Effect on HDAC in human HaCaT cells assessed as downregulation of miR-33a# at 10 uM after 1 hr by RT-PCR analysis; format: cell-based

Chain of Histone deacetylase 4 (Homo sapiens) (P56524 whole entry): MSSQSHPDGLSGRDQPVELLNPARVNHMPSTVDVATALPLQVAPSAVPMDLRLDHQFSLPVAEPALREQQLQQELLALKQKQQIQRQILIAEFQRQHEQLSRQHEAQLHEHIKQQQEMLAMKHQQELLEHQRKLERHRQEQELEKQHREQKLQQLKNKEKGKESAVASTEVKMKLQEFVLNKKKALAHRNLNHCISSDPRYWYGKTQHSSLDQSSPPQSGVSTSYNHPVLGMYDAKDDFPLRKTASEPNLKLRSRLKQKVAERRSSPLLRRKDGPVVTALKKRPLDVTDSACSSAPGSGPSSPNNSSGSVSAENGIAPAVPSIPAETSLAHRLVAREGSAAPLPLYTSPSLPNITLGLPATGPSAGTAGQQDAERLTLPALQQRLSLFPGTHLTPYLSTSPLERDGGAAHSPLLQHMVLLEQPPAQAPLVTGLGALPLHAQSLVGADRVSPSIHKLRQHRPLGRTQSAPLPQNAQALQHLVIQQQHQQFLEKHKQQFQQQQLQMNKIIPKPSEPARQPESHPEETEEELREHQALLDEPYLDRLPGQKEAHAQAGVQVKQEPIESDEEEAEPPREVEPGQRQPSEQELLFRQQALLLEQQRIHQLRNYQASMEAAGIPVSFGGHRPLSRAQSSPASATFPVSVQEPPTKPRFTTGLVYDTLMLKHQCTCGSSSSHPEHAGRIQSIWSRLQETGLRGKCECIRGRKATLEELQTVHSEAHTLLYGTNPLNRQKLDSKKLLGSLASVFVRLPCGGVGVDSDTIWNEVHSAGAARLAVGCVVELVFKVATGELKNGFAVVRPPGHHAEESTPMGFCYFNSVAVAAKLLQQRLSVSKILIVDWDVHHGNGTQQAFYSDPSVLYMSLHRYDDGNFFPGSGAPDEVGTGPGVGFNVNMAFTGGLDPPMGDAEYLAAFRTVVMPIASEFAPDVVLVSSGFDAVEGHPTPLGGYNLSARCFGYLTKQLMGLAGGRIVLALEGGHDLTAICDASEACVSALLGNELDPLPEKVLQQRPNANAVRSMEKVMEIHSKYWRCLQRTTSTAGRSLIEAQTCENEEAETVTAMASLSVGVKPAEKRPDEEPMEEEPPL
Chain of Histone deacetylase 2 (Homo sapiens) (Q92769 whole entry): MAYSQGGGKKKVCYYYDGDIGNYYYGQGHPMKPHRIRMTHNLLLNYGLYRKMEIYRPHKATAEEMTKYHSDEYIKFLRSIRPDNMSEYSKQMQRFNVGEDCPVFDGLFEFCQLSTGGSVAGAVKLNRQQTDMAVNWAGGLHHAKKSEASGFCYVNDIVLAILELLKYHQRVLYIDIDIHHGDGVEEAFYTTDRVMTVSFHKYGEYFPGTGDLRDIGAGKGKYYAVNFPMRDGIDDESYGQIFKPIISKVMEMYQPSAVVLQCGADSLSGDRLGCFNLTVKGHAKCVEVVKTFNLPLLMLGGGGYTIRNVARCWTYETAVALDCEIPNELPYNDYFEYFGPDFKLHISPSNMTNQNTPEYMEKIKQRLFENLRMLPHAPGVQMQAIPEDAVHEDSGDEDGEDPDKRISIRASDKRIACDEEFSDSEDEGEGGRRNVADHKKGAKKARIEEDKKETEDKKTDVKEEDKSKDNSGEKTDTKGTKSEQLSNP

CN(C)Cc1no[n+]([O-])c1C#N
Activity [1]: Active
Activity [2]: Active
Activity [3]: Active
Activity (C2C12 [4]): Active
Activity [5]: Active
Activity [6]: Active
Activity [7]: Active
Activity (HaCaT [8]): Active
inhibition [9]: Active

Nc1ccccc1NC(=O)c1ccc(CNC(=O)OCc2cccnc2)cc1
Activity [1]: inactive
Activity (HaCaT [8]): inactive
Activity (C2C12 [10]): Active

CN(Cc1ccc(COC(=O)NCc2ccc(C(=O)Nc3ccccc3N)cc2)cn1)Cc1no[n+]([O-])c1C#N
Activity [11]: Active
Activity (HaCaT [12]): Dose-dependent effect
Activity (C2C12 [13]): Active
Activity [1]: Active
Activity [14]: Active
Activity [15]: Active
Activity [16]: Active
Activity [17]: Active
inhibition [18]: Active
Activity [19]: Active
Activity [6]: Active
Activity [7]: Active
Activity [20]: Active
Activity [21]: inactive
Activity [22]: Active
Activity [23]: Active
Activity (C2C12 [24]): Active
Activity [25]: Active
Activity [26]: Active
Activity (HaCaT [8]): Active
Activity (C2C12 [10]): Active

Source: ChEMBL document CHEMBL2440104, “Synthesis and Biological Evaluation of the First Example of NO-Donor Histone Deacetylase Inhibitor” (ACS Med Chem Lett, 2013)
